Laboratory results: patent publication US11358939B2, “1,4-benzodiazepin-2-one derivatives and use thereof” (priority 2017, dated 2022)

Experiments:
[1] = test system: writhes induced by intraperitoneal acetic acid; assay: Analgesic activity, acetic acid-induced writhing test (peripheral pain model); type: in vivo
Protocol: Assessment of analgesic activity was performed in a model of peripheral pain based on chemical pain induced by intraperitoneal administration of acetic acid, leading to involuntary contractions of abdominal muscles, termed “writhes”, accompanied by hind leg extension and spine arching. The writhes were induced by 0.75% solution of acetic acid, which was administered intraperitoneally 40 min after intraperitoneal administration of test compounds in 0.001-5 mg/kg dose range. […] Analgesic activity was assessed by the ability of the compounds to reduce the number of writhes in test group compared to control group, and indicated as percentage using the following formula: AA=(Wc−Wt/Wc)×100%,
where AA—analgesic activity in %;
Wc—average number of writhes in control group;
Wt—average number of writhes in test group
Test compounds were studied in comparison with the reference drug sodium diclofenac in 10 mg/kg dose. ED50 was calculated using Prozorovsky method.

immobility time of mice = assay: Antidepressant activity, Porsolt forced swimming test; type: in vivo
Protocol: (§1) Studies of pharmacological activity of 3-arylamino-1,3-dihydro-2H-benzo[e][1,4]diazepin-2-ones, namely, their action of appetite, assessment of antihypoxic and antidepressant activity was performed in white male rats with body mass 150-180 g and male mice with body mass 18-22 g. The animals were kept on a standard laboratory diet and natural lighting. Animals of control group were given a water-Tween suspension. Test compounds were administered in a suspension with Tween-80 Reference drugs were the hormone leptin, in 0.0002 mg/kg dose, and a well-known antidepressant amitriptyline (solution for injections in 1 ml vials. Test compounds and the water-Tween suspension were administered in a dose of 0.2 ml/100 g of rat body mass.
Antidepressant activity was studied using «Porsolt forced swimming test» [15], which models stress in mice by forcing them to swim in a narrow translucent cylinder, filled by ⅓ volume with water at 23-25° C. temperature. Antidepressant action is assessed by the reduction in immobility time, when the animals have minimal amount of paddling, in seconds or percentage compared to control. The animal behavior was registered for 4 minutes after acclimatization for 2 minutes.

food consumption by rats [2] = assay: Action on appetite, Anorexia method (liquid food consumption); type: in vivo; details: for Amount of consumed liquid food during 30 min in ml / Food consumption, % of control: dose 0,1 mg/kg intraperitoneally
Protocol: as §1
The action of the compounds on rat appetite was studied using «norexia» method. For 2 weeks in an experimental equipment the rats were conditioned to consume liquid food. Then a water-Tween suspension of test articles was administered intraperitoneally to conditioned animals one day before the experiment. After 40 minutes the animals were allowed access to liquid food and the amount of consumed food (in ml) of every rat was registered every 30 minutes for 3 hours. The next day after 2 hours of deprivation the rats in control group were administered a water-Tween suspension intraperitoneally, while the test group was administered the test articles. After 40 minutes the animals were allowed access to liquid food and the amount of consumed food (in ml) of every rat was registered every 30 minutes for 3 hours. Then all food consumption values for each rat were summed and compared to control values. The control group has consumed on average 7 ml of liquid food per 30 minutes. The effect was calculated in percentage compared to control.

[3] = test system: mice in acute confined space hypoxia; assay: Antihypoxic activity, acute confined space hypoxia (CSH); type: in vivo; details: 10 mg/kg
Protocol: as §1
Screening of antihypoxic activity was performed using the model of acute confined space hypoxia (CSH). CSH was modeled by placing mice into isolated sealed chambers (V=200 ml). Each group included 10 animals. The observation lasted until the death of the animals. Antihypoxic effect was assessed by the survival duration (in min) compared to control, which was taken as 100%, and according to the calculation of antihypoxic protection ratio (Rpr):Rpr=Tt/Tc, where Tt—average animal survival time in the test group; Tc—average animal survival time in the control group.

[4] = test system: writhes induced by intraperitoneal acetic acid; details: prior art section; cited from earlier work
[5] = test system: mice in acute confined space hypoxia; details: reference drug, ref. [14]; cited from earlier work
food consumption by rats [6] = assay: Action on appetite, Anorexia method (liquid food consumption); type: in vivo; details: leptin dose 20 nM

O=C1Nc2ccc([N+](=O)[O-])cc2C(c2ccccc2)=NC1Nc1ccccc1[N+](=O)[O-] (stereo not shown)
melting point: 225 to 227 °C

CCCOC1N=C(c2ccccc2)c2cc([N+](=O)[O-])ccc2N(CC(=O)OC)C1=O (stereo not shown) [Compound 48, Methyl-2-(7-nitro-2-oxo-5-phenyl-3-propoxy-2,3-dihydro-1H-benzo[e][1,4]di-azepin-1-yl)acetate]
Writhing inhibition, % of control in 1 mg/kg dose ([1]; compounds Ia, 1 mg/kg intraperitoneally, 40 min before 0.75% acetic acid): 85% | ED50 ([1]; ip, intraperitoneal, Prozorovsky method): 0.058 ± 0.015 mg/kg | melting point: 214 to 215 °C

COC(=O)CN1C(=O)C(Nc2cccc(F)c2)N=C(c2ccccc2)c2cc(Cl)ccc21 (stereo not shown) [Compound 159]
Reduction of immobility time compared to control (immobility time of mice; 1 mg/kg): 32%

O=C1Nc2ccc(OC(F)(F)F)cc2C(c2ccccc2)=NC1Nc1ccccc1Cl (stereo not shown) [Compound 194]
Reduction in appetite and food consumption compared to control (food consumption by rats [2]; Table 6 dose 0,1 mg/kg): 47% | Amount of consumed liquid food during 30 min in ml (food consumption by rats [2]): 3,5 ± 2,3 ml | Food consumption, % of control (food consumption by rats [2]): 47% | Reduction of immobility time compared to control (immobility time of mice; 1 mg/kg): 40%

O=C1Nc2ccc([N+](=O)[O-])cc2C(c2ccccc2)=NC1Nc1ccc(Cl)cc1 (stereo not shown) [Compound 250]
Amount of consumed liquid food during 30 min in ml (food consumption by rats [2]): 6,3 ± 3,2 ml | Food consumption, % of control (food consumption by rats [2]): 85% | Increase of mice survival time during acute confined space hypoxia compared to control [3]: 70%

O=C1Nc2ccc([N+](=O)[O-])cc2C(c2ccccc2F)=NC1Nc1cccc(Cl)c1 (stereo not shown) [Compound 357]
Amount of consumed liquid food during 30 min in ml (food consumption by rats [2]): 5,9 ± 2,2 ml | Food consumption, % of control (food consumption by rats [2]): 80% | Increase of mice survival time during acute confined space hypoxia compared to control [3]: 40.5%

CN(C)CCC=C1c2ccccc2CCc2ccccc21 [amitriptyline, reference compound]
Reduction of immobility time compared to control (immobility time of mice; 1 mg/kg): 40%

CCOC1N=C(c2ccccc2)c2cc(Br)ccc2N(CC(=O)OC)C1=O (stereo not shown) [methyl-2-(7-bromo-3-etoxy-2-oxo-5-phenyl-2,3-dihydro-1H-benzo[e][1,4]diazepin-1-yl) acetate]
ED50, analgesic activity in acetic acid-induced writhing test (prior art) [4]: 0.47 ± 0.15 mg/kg

leptin
Reduction in appetite and food consumption compared to control (food consumption by rats [2]; leptin 0.0002 mg/kg): 63% | Antihypoxic properties [5]: no antihypoxic properties | Amount of consumed liquid food during 30 min in ml (food consumption by rats [6]): 2,5 ± 0,2 ml | Food consumption, % of control (food consumption by rats [6]): 37% | Reduction of immobility time compared to control (immobility time of mice; 0.0002 mg/kg): 14%
